The record followed here is US12528814B2, “Bifunctional degraders of interleukin-1 receptor-associated kinases and therapeutic use thereof” (NURIX THERAPEUTICS, INC., priority 2020, dated 2026).

Where two headings read alike, the source gives them in different places.

For assay [1], the target named is T1, IRAK4 (Homo sapiens (Human), UniProt Q9NWZ3). In words: IRAK4 Degradation HiBiT Assay. Conditions: HiBiT-tagged Jurkat cells, 4 hrs; for Dmax: Jurkat; for DC50: read-out: Cellular IRAK4 HiBiT: DC50.
Target sequence in this assay (Q9NWZ3 whole entry): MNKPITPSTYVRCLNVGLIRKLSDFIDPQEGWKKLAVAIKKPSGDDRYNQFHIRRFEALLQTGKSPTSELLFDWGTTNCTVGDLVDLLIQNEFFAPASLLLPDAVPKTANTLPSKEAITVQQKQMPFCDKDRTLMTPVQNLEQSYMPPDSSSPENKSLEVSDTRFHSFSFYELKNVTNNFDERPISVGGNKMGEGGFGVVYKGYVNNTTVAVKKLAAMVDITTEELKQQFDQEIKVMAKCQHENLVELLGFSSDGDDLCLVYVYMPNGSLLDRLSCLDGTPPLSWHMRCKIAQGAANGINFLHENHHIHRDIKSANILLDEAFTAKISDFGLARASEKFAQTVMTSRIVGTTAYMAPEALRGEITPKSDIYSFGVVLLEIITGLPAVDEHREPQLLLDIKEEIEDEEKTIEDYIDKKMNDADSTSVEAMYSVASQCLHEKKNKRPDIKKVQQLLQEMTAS
For assay [2], the target named is T1, IRAK4. In words: IRAK4 Biochemical HTRF Kinase Assay. Conditions: read-out: IRAK4 HTRF biochemical: IC50. In short, it runs like this: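 IC50 values derive from non-linear regression of sixteen concentrations in duplicate. Kinase reaction ran 90 min at ambient temperature after adding 5 μM STK-S1 substrate, 10 mM ATP and 10 mM MgCl2 (reaction-solution levels, pre-dilution to 10 μl); phospho-peptide detected by HTRF after 60 min.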
Target sequence in this assay (Q9NWZ3 whole entry, species assumed): as the sequence (Q9NWZ3 whole entry) above
For orientation: TR-FRET usually uses a lanthanide donor and a delayed reading to cut background.

[3] abbreviates: read-out: Cellular IRAK4 HiBiT: Dmax, Table 4.
[4] abbreviates: read-out: Cellular IRAK4 HiBiT: Dmax, Table 5, multiple runs.

On to `CNc1cc(-c2ccc3cc(C#N)cnn23)ncc1-c1nnc([C@H]2CC[C@H](NC(=O)CCCCCC(=O)N[C@H](C(=O)N3C[C@H](O)C[C@H]3C(=O)N[C@@H](C)c3ccc(-c4scnc4C)cc3)C(C)(C)C)CC2)s1` [Example 62, N1-((1r,4S)-4-(5-(6-(3-cyanopyrrolo[1,2-b]pyridazin-7-yl)-4-(methylamino)pyridin-3-yl)-1,3,4-thiadiazol-2-yl)cyclohexyl)-N7—((S)-1-((2S,4R)-4-hydroxy-2-(((S)-1-(4-(4-methylthiazol-5-yl)phenyl)ethyl)carbamoyl)pyrrolidin-1-yl)-3,3-dimethyl-1-oxobutan-2-yl)heptanediamide], for which the Dmax (usually the greatest extent of degradation seen) worked out at 103% in assay [1] (setting [3]) and 111% in assay [1] (setting [4]). In addition, the DC50 (in general, the concentration giving 50% degradation) was 74.5 nM in assay [1] (Table 4) and 58.2 nM in assay [1] (Table 5, multiple runs). Besides, the IC50 (in general, the concentration needed to halve the response being measured) came to 1.51 nM in assay [2] (Table 4) and 1.5 nM in assay [2] (Table 5, multiple runs).

`CNc1cc(-c2ccc3cc(C#N)cnn23)ncc1-c1nnc([C@H]2CC[C@H](NC(=O)CCOCCNc3ccc4c(c3)C(=O)N(C3CCC(=O)NC3=O)C4=O)CC2)s1` (stereo partly drawn) [Example 63, N-((1r,4r)-4-(5-(6-(3-cyanopyrrolo[1,2-b]pyridazin-7-yl)-4-(methylamino)pyridin-3-yl)-1,3,4-thiadiazol-2-yl)cyclohexyl)-3-(2-((2-(2,6-dioxopiperidin-3-yl)-1,3-dioxoisoindolin-5-yl)amino)ethoxy)propanamide]: the Dmax in assay [1] (setting [3]) was 80%; in assay [1] (setting [4]) it was 85%. For the same molecule, the DC50 in assay [1] (Table 4) worked out at 8.1 nM; in assay [1] (Table 5, multiple runs), 7.6 nM. For the same molecule, the IC50 in assay [2] (Table 4) worked out at 0.7 nM; in assay [2] (Table 5, multiple runs) it was 0.6 nM.

For the molecule `CNc1cc(-c2ccc3cc(C#N)cnn23)ncc1-c1nnc([C@H]2CC[C@H](NC(=O)CN3CCC4(CC3)CN(c3ccc5c(c3)C(=O)N(C3CCC(=O)NC3=O)C5=O)C4)CC2)s1` (stereo partly drawn) [Example 64, N-((1r,4r)-4-(5-(6-(3-cyanopyrrolo[1,2-b]pyridazin-7-yl)-4-(methylamino)pyridin-3-yl)-1,3,4-thiadiazol-2-yl)cyclohexyl)-2-(2-(2-(2,6-dioxopiperidin-3-yl)-1,3-dioxoisoindolin-5-yl)-2,7-diazaspiro[3.5]nonan-7-yl)acetamide], the Dmax in assay [1] (setting [3]) stood at 110%; in assay [1] (setting [4]), 112%. The DC50 in assay [1] (Table 4) is 17.3 nM; in assay [1] (Table 5, multiple runs), 14.9 nM. The IC50 in assay [2] (Table 4) stood at 0.89 nM; in assay [2] (Table 5, multiple runs), 0.8 nM.

As for `CNc1cc(-c2ccc3cc(C#N)cnn23)ncc1-c1nnc([C@H]2CC[C@H](NC(=O)CN3CCN(c4ccc5c(c4)C(=O)N(C4CCC(=O)NC4=O)C5=O)CC3)CC2)s1` (stereo partly drawn) [Example 65, N-((1r,4r)-4-(5-(6-(3-cyanopyrrolo[1,2-b]pyridazin-7-yl)-4-(methylamino)pyridin-3-yl)-1,3,4-thiadiazol-2-yl)cyclohexyl)-2-(4-(2-(2,6-dioxopiperidin-3-yl)-1,3-dioxoisoindolin-5-yl)piperazin-1-yl)acetamide], the Dmax came out at 109% in assay [1] (setting [3]) and 111% in assay [1] (setting [4]). Besides, the 50% degradation concentration (DC50) in assay [1] (Table 4) came out at 5.1 nM; in assay [1] (Table 5, multiple runs) it was 16.9 nM. Further, the IC50 came to 0.95 nM in assay [2] (Table 4) and 0.8 nM in assay [2] (Table 5, multiple runs).

Regarding `CNc1cc(-c2ccc3cc(C#N)cnn23)ncc1-c1nnc([C@H]2CC[C@H](NC(=O)CCCCCNc3cccc4c3C(=O)N(C3CCC(=O)NC3=O)C4=O)CC2)s1` (stereo partly drawn) [Example 66, N-((1r,4r)-4-(5-(6-(3-cyanopyrrolo[1,2-b]pyridazin-7-yl)-4-(methylamino)pyridin-3-yl)-1,3,4-thiadiazol-2-yl)cyclohexyl)-6-((2-(2,6-dioxopiperidin-3-yl)-1,3-dioxoisoindolin-4-yl)amino)hexanamide], the Dmax in assay [1] (setting [4]) came out at 54%. For the same molecule, in assay [1] (Table 5, multiple runs), the 50% degradation concentration (DC50) is 11.2 nM. Besides, in assay [2] (Table 5, multiple runs), the IC50 stood at 1.6 nM.
